The results in this text go back to patent US20140093498A1, “PHARMACEUTICAL COMBINATIONS COMPRISING DUAL ANGIOPOIETIN-2 / DLL4 BINDERS AND ANTI-VEGF-R AGENTS” (BOEHRINGER INGELHEIM INTERNATIONAL GMBH, priority 2012, published 2014).

One data set deals with renal cancer (RXF 1220). Briefly: RXF 1220 patient-derived tumor xenograft growth in nude mice. The class given is in vivo. The conditions noted are these: BI-1 13.6 mg/kg i.p. twice weekly, Sunitinib 40 mg/kg once daily, Bevacizumab 15 mg/kg i.p. twice weekly. An excerpt: (§1) The goal of the present study was to assess the efficacy of BI-1 in combination with Bevacizumab, BIBF1120 or Sunitinib in models of human non small cell lung cancer (LXFE 211, LXFE 1422), colon cancer (CXF 243), mammary cancer (MAXF 401), ovarian cancer (OVXF 1353), pancreatic cancer (PAXF 546) and renal cancer (RXF 1220) in nude mice. All models were patient-derived tumor xenografts (PDX), which were transplanted from patients to nude mice and passaged subcutaneously. These models retain most of the characteristics of the parental patient tumors including histology.
(§2) BI-1 with the sample ID number D11B20V503 was used for this experiment and diluted with PBS. BIBF1120 with the batch chiffre 133562 was suspended in Natrosol 0.5% (Hydroxyethylcellulose Natrosol 250 HX, VWR). […]
(§3) Tumor fragments were obtained from tumor xenografts in serial passage in nude mice. […] Mice were monitored daily. […]
(§4) The doses of BI-1 and Bevacizumab were calculated to the average body weight of all mice on day 1 (28 g) and administered intraperitoneally twice weekly in a volume of 100 μl per mouse. […]
(§5) Tumor diameters were measured twice weekly with a caliper. The volume of each tumor [in mm^3] was calculated according to the formula “tumor volume=length*diameter^2*0.5.” To monitor side effects of treatment, mice were inspected daily for abnormalities and body weight was determined twice weekly. […]

The test system of data set [1] is ovarian cancer (OVXF 1353). Kind of data set: OVXF 1353 patient-derived tumor xenograft growth in nude mice. The conditions noted are these: BI-1 13.6 mg/kg i.p. twice weekly, BIBF1120 50 mg/kg p.o. once daily. The class given is in vivo.
Text: as §1, §2, §3, §4, §5

Data set [2] has as its system pancreatic cancer (PAXF 546). Kind of data set: PAXF 546 patient-derived tumor xenograft growth in nude mice. The conditions noted are these: BI-1 13.6 mg/kg i.p. twice weekly, BIBF1120 50 mg/kg p.o. once daily, Bevacizumab 15 mg/kg i.p. twice weekly. The class given is in vivo.
Text: as §1, §2, §3, §4, §5

Data set [3] has as its system mammary cancer (MAXF 401). Briefly: MAXF 401 patient-derived tumor xenograft growth in nude mice. The class given is in vivo. The conditions noted are these: BI-1 13.6 mg/kg i.p. twice weekly, BIBF1120 50 mg/kg p.o. once daily, Bevacizumab 15 mg/kg i.p. twice weekly.
Text: as §1, §2, §3, §4, §5

Data set [4] has as its system human non-small cell lung cancer (NCI-H1975). Briefly: Subcutaneous NCI-H1975 xenograft tumor growth in nude mice. The class given is in vivo. The note with it: day 14, 2.5 cycles; Bevacizumab 25 mg/kg i.p. twice weekly, BIBF 1120 50 mg/kg p.o. daily, BI-1 13.6 mg/kg i.p. twice weekly.
Text: The goal of the present study was to assess the efficacy of BI-1 in combination with Bevacizumab and BIBF 1120 in a model of human non small cell lung cancer (NCI-H1975) in nude mice.
• Model: Subcutaneous xenografts of the human non-small cell lung cancer (NCI-H1975) growing in nude mice
BI-1 with the sample ID number D11B20V503 was used for this experiment and diluted with PBS. BIBF 1120 with the batch chiffre 133562 was suspended in Natrosol 0.5% (Hydroxyethylcellulose Natrosol 250 HX, VWR).
Avastin® (Bevacizumab, 25 mg/ml) was purchased from Roche (Basel, Switzerland), (dissolved in 0.9% saline) was diluted with 0.9% saline.
Mice were 7 week-old female BomTac:NMRI-Foxn1nu purchased from Taconic, Denmark. After arrival, mice were allowed to adjust to ambient conditions for at least 5 days before they were used for the experiments. […]
as §4
Tumor diameters were measured three times a week (Monday, Wednesday and Friday) with a caliper. The volume of each tumor [in mm3] was calculated according to the formula “tumor volume=length*diameter2*π/6.” To monitor side effects of treatment, mice were inspected daily for abnormalities and body weight was determined three times a week (Monday, Wednesday and Friday). […]

The test system of another data set is colon cancer (CXF 243). Briefly: CXF 243 patient-derived tumor xenograft growth in nude mice. The class given is in vivo. The conditions noted are these: BI-1 13.6 mg/kg i.p. twice weekly, BIBF1120 50 mg/kg p.o. once daily, Bevacizumab 15 mg/kg i.p. twice weekly.
Text: as §1, §2, §3, §4, §5

Data set [5] is described as follows: Body weight losses and deaths in PDX tumor-bearing mice. The conditions noted are these: mouse, in vivo. More on the design: species or system nude mice. As for the experimental part:
Tumor diameters were measured twice weekly with a caliper. The volume of each tumor [in mm^3] was calculated according to the formula “tumor volume=length*diameter^2*0.5.” To monitor side effects of treatment, mice were inspected daily for abnormalities and body weight was determined twice weekly. Animals with tumor sizes exceeding 1.5 cm in diameter or 20% body weight loss were euthanized for ethical reasons.

The subject of data set [6] is human non small cell lung cancer (LXFE 211). Briefly: LXFE 211 patient-derived tumor xenograft growth in nude mice. The class given is in vivo. The conditions noted are these: BI-1 13.6 mg/kg i.p. twice weekly, BIBF1120 50 mg/kg p.o. once daily, Bevacizumab 15 mg/kg i.p. twice weekly.
Text: as §1, §2, §3, §4, §5

For data set [7], the system named is human non small cell lung cancer (LXFE 1422). Kind of data set: LXFE 1422 patient-derived tumor xenograft growth in nude mice. The data set is classed as in vivo. The conditions noted are these: BI-1 13.6 mg/kg i.p. twice weekly, BIBF1120 50 mg/kg p.o. once daily, Bevacizumab 15 mg/kg i.p. twice weekly.
Text: as §1, §2, §3, §4, §5

In the case of `CCN(CC)CCNC(=O)c1c(C)[nH]c(/C=C2\C(=O)Nc3ccc(F)cc32)c1C` [Sunitinib], the “TGI [%]” value with renal cancer (RXF 1220) is given as 62%.

As to `CCS(=O)(=O)O.COC(=O)c1ccc2c(c1)NC(=O)/C2=C(\Nc1ccc(N(C)C(=O)CN2CCN(C)CC2)cc1)c1ccccc1` [BIBF1120, 3-Z-[1-(4-(N-((4-methyl-piperazin-1-yl)-methylcarbonyl)-N-methyl-amino)-anilino)-1-phenyl-methylen]-6-methoxycarbonyl-2-indolinon-monoethanesulfonate], the “TGI [%]” value in [1] worked out at 78%; in data set [2] it was 69%; in data set [3], 63%; in the data set on colon cancer (CXF 243), 65%; in data set [6] it was 40%; in data set [7], 57%. For the same compound, the “median TGI” value in [4] came to 75%. Further, the “maximum median body weight loss” value in [5] stood at 5.9%.

Consider “Bevacizumab: VEGF-neutralizing antibody A4.6.1, also called bevacizumab (Avastin®)”, for which the “TGI [%]” value in data set [2] turned out to be 59%; in [3] it was 68%; in data set [6], 37%; in data set [7], 63%. Moreover, the “median TGI” value in [4] is 82%. Moreover, in [5], the “maximum median body weight loss” value amounted to 9.1%.
